Values after ≈ are worked out from the molar mass of the structure shown.
Tests used:
Assay type in all cases: cell-based, Staphylococcus aureus
Staph aureus 1146 [1] = experiment: MIC in Mueller-Hinton Broth with 50% pooled inactivated human serum, Assay 1, Table 12; conditions: for MIC: Staphylococcus aureus, 1146, Staph aureus 1146, Assay 1, 50% human serum, read-out: MIC, column C; for MIC, column C: Staph aureus 1146, Assay 1, 50% human serum
How it was run: (§1)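 Staphylococcus aureus susceptibility is measured by CLSI M7-A7 broth microdilution in microtiter trays. For serum testing, bacteria are inoculated into Mueller-Hinton Broth containing 50% pooled inactivated human serum. The MIC in μg/ml is the lowest concentration preventing visible growth.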

Staph aureus 1095 MRSA = experiment: MIC, microtiter broth dilution (CLSI M7-A7), Assay 1, Table 12 column A, no serum; conditions: Assay 1, no serum; for MIC: Staphylococcus aureus, MRSA
How it was run: as §1

Staph aureus 2812 = experiment: MIC, microtiter broth dilution (CLSI M7-A7), Assay 1, Table 12 column E, no serum; conditions: for MIC: Staphylococcus aureus, 2812, Staph aureus 2812, Assay 1, no serum; for MIC, column E: Staph aureus 2812, Assay 1, no serum
How it was run: as §1

Staph aureus 1146 [2] = experiment: MIC, microtiter broth dilution (CLSI M7-A7), Assay 1, Table 12 column B, no serum; conditions: for MIC: Staphylococcus aureus, 1146, Staph aureus 1146, Assay 1, no serum; for MIC, column B: Staph aureus 1146, Assay 1, no serum
How it was run: as §1

Staph aureus 2811 = experiment: MIC, microtiter broth dilution (CLSI M7-A7), Assay 1, Table 12 column D, no serum; conditions: for MIC: Staphylococcus aureus, 2811, Staph aureus 2811, Assay 1, no serum; for MIC, column D: Staph aureus 2811, Assay 1, no serum
How it was run: as §1

Structure (SMILES)	MIC (Staph aureus 1146 [1]) [µg/mL]	MIC (Staph aureus 1095 MRSA) [µg/mL]	MIC (Staph aureus 2812) [µg/mL]	MIC (Staph aureus 1146 [2]) [µg/mL]	MIC (Staph aureus 2811) [µg/mL]	MIC, column C (Staph aureus 1146 [1]) [µg/mL]	MIC, column A (Staph aureus 1095 MRSA) [µg/mL]	MIC, column E (Staph aureus 2812) [µg/mL]	MIC, column B (Staph aureus 1146 [2]) [µg/mL]	MIC, column D (Staph aureus 2811) [µg/mL]
CNC(=O)[C@H]1CN(C2CC(c3ccccc3)C2)CC[C@H]1CCC(O)c1ccnc2ccc(OC)cc12 (stereo partly drawn) [Example 145, (3R,4R)-4-[3-Hydroxy-3-(6-methoxy-quinolin-4-yl)-propyl]-1-(3-phenyl-cyclobutyl)-piperidine-3-carboxylic acid methylamide]	4 (≈ 8.2 µM)	0.25 (≈ 0.513 µM)	1 (≈ 2.05 µM)	1 (≈ 2.05 µM)	0.5 (≈ 1.03 µM)					
COc1ccc2nccc(C(O)CC[C@@H]3CCN(C4CC(Oc5ccccn5)C4)C[C@@H]3C(=O)O)c2c1 (stereo partly drawn) [Example 104, (3R,4R)-4-[3-hydroxy-3-(6-methoxyquinolin-4-yl)propyl]-1-[3-(pyridin-2-yloxy)cyclobutyl]piperidine-3-carboxylic acid]	> 64	> 64	> 64	> 64	> 64					
CNC(CC[C@@H]1CCN(C2CC(c3ccccc3)C2)C[C@@H]1C(=O)O)c1ccnc2ccc(OC)cc12 (stereo partly drawn) [Example 136, (3R,4R)-4-[3-(6-Methoxy-quinolin-4-yl)-3-methylamino-propyl]-1-(3-phenyl-cyclobutyl)-piperidine-3-carboxylic acid]	4 (≈ 8.2 µM)	8 (≈ 16.4 µM)	8 (≈ 16.4 µM)	4 (≈ 8.2 µM)	4 (≈ 8.2 µM)					
COc1ccc2ncc(F)c(C(O)CC[C@@H]3CCN(C4CC(c5cc(F)ccc5F)C4)C[C@@H]3C(=O)O)c2n1 (stereo partly drawn) [Example 218, (3R,4R)-1-[3-(2,5-difluorophenyl)cyclobutyl]-4-[3-(3-fluoro-6-methoxy-1,5-naphthyridin-4-yl)-3-hydroxypropyl]piperidine-3-carboxylic acid]						2.00 (≈ 3.78 µM)	0.125 (≈ 0.236 µM)	<0.0625	<0.0625	<0.0625
COc1ccc(F)c(C2CC(N3CC[C@@H](CC[C@H](O)c4ccnc5ccc(OC)cc45)[C@@H](C(=O)O)C3)C2)c1 (stereo partly drawn) [Example 172, (3R,4R)-1-[3-(2-fluoro-5-methoxyphenyl)cyclobutyl]-4-[(3S)-3-hydroxy-3-(6-methoxyquinolin-4-yl)propyl]piperidine-3-carboxylic acid]	32 (≈ 61.2 µM)	4 (≈ 7.65 µM)	2 (≈ 3.83 µM)	2 (≈ 3.83 µM)	1 (≈ 1.91 µM)					
COc1ccc2nccc(C(O)CC[C@@H]3CCN(C4CC(C5CCCC5)C4)C[C@@H]3C(=O)O)c2c1 (stereo partly drawn) [Example 45, (3R,4R)-1-(3-cyclopentylcyclobutyl)-4-[3-hydroxy-3-(6-methoxyquinolin-4-yl)propyl]piperidine-3-carboxylic acid]	0.353 (≈ 0.758 µM)	≤ 0.125	≤ 0.0884	≤ 0.0884	≤ 0.0884					
COc1ccc2nccc([C@@H](O)CNC3CCN([C@H]4C[C@H](c5ccccc5)C4)CC3C(=O)O)c2c1 (stereo partly drawn) [Example 122, 4-{[(2R)-2-hydroxy-2-(6-methoxyquinolin-4-yl)ethyl]amino}-1-(trans-3-phenylcyclobutyl)piperidine-3-carboxylic acid]	16 (≈ 33.6 µM)	4 (≈ 8.41 µM)	2 (≈ 4.21 µM)	4 (≈ 8.41 µM)	1 (≈ 2.1 µM)					
COc1ccc2ncc(F)c(C(O)CC[C@@H]3CCN(C4CC(c5ccccc5)C4)C[C@@H]3C(=O)O)c2c1 (single isomer, unassigned) [Example 15]		0.0884 (≈ 0.179 µM)			0.0625 (≈ 0.127 µM)	0.25 (≈ 0.508 µM)		0.03125 (≈ 0.0634 µM)	0.0156 (≈ 0.0317 µM)	
COc1ccc2nccc(C(CC[C@@H]3CCN(C4CC(c5ccccc5)C4)C[C@@H]3C(=O)O)OC)c2c1 (stereo partly drawn) [Example 11, (3R,4R)-4-[3-methoxy-3-(6-methoxyquinolin-4-yl)propyl]-1-(3-phenylcyclobutyl)piperidine-3-carboxylic acid]						>64	1 (≈ 2.05 µM)	2 (≈ 4.09 µM)	2 (≈ 4.09 µM)	2 (≈ 4.09 µM)
COc1ccc2nccc(C(CC[C@@H]3CCN(C4CC(c5ccccc5)C4)C[C@@H]3C(=O)O)OC)c2c1 (stereo partly drawn) [Example 10, (3R,4R)-4-[3-methoxy-3-(6-methoxyquinolin-4-yl)propyl]-1-(3-phenylcyclobutyl)piperidine-3-carboxylic acid]		1 (≈ 2.05 µM)				16 (≈ 32.7 µM)		0.5 (≈ 1.02 µM)	0.5 (≈ 1.02 µM)	0.5 (≈ 1.02 µM)
COc1ccc2nccc([C@@H](O)CC[C@@H]3CCN(C4CC(c5cc(F)c(F)cc5F)C4)C[C@@H]3C(=O)O)c2c1 (stereo partly drawn) [Example 191, (3R,4R)-4-[(3S)-3-hydroxy-3-(6-methoxyquinolin-4-yl)propyl]-1-[3-(2,4,5-trifluorophenyl)cyclobutyl] piperidine-3-carboxylic acid]	1 (≈ 1.89 µM)	0.125 (≈ 0.236 µM)	< 0.0625	< 0.0625	< 0.0625					
COc1ccc2nccc(C(O)CC[C@@H]3CCN(C4CC(c5ccc(O)cc5)C4)C[C@@H]3C(=O)O)c2c1 (stereo partly drawn) [Example 31, (3R,4R)-4-[3-hydroxy-3-(6-methoxyquinolin-4-yl)propyl]-1-[3-(4-hydroxyphenyl)cyclobutyl] piperidine-3-carboxylic acid]	> 64	16 (≈ 32.6 µM)	32 (≈ 65.2 µM)	32 (≈ 65.2 µM)	32 (≈ 65.2 µM)					
COc1ccc2nccc(C(O)CC[C@@H]3CCN(C4CCN(c5ccccc5)C4)C[C@@H]3C(=O)O)c2c1 (stereo partly drawn) [Example 185, (3R,4R)-4-[3-hydroxy-3-(6-methoxyquinolin4-yl)propyl]-1-(1-phenylpyrrolidin-3-yl)piperidine-3-carboxylic acid]	> 64	8 (≈ 16.3 µM)	4 (≈ 8.17 µM)	2 (≈ 4.08 µM)	8 (≈ 16.3 µM)					
COc1ccc2nccc(C(O)CC[C@@H]3CCN(C4CC(c5ccccc5C)C4)C[C@@H]3C(=O)O)c2c1 (stereo partly drawn) [Example 34, (3R,4R)-4-[3-hydroxy-3-(6-methoxyquinolin-4-yl)propyl]-1-[3-(2-methylphenyl)cyclobutyl] piperidine-3-carboxylic acid]	16 (≈ 32.7 µM)	1 (≈ 2.05 µM)	0.5 (≈ 1.02 µM)	1 (≈ 2.05 µM)	0.5 (≈ 1.02 µM)					
COc1ccc2nccc(C(O)CC[C@@H]3CCN(C4CC(O)(c5ccccc5)C4)C[C@@H]3C(=O)O)c2c1 (mixture of isomers) [Example 96, (3R,4R)-4-[3-hydroxy-3-(6-methoxyquinolin-4-yl)propyl]-1-(3-hydroxy-3-phenylcyclobutyl)piperidine-3-carboxcylic acid]						>64	>64	>64	8	>64
COc1ccc2ncc(Cl)c([C@@H](O)CNC3(C(=O)O)CCCN(C4CC(c5ccccc5)C4)CC3)c2c1 (single isomer, unassigned) [Example 147]	4 (≈ 7.63 µM)	8 (≈ 15.3 µM)	1 (≈ 1.91 µM)	1 (≈ 1.91 µM)	1 (≈ 1.91 µM)					
COc1ccc2ncc(Cl)c(CCNC3(C(=O)O)CCCN(CC4CC4c4cc(F)ccc4F)CC3)c2c1 (centres unmarked) [Example 156, 4-{[2-(3-chloro-6-methoxyquinolin-4-yl)ethyl]amino}-1-{[2-(2,5-difluorophenyl)cyclopropyl]methyl}azepane-4-carboxylic acid]	> 33	1 (≈ 1.84 µM)	0.25 (≈ 0.46 µM)	0.25 (≈ 0.46 µM)	0.5 (≈ 0.919 µM)					
COc1ccc2ncc(F)c(CCCC3(C(=O)O)CCN(C4CC(c5c(F)cccc5F)C4)C3)c2c1 (centres unmarked) [Example 174, 1-[3-(2,6-difluorophenyl)cyclobutyl]-3-[3-(3-fluoro-6-methoxyquinolin-4-yl)propyl]pyrrolidine-3-carboxylic acid]		< 0.0625	< 0.0625	< 0.0625	< 0.0625	4.00 (≈ 8.02 µM)				
COc1ccc2nccc(C(O)CC[C@@H]3CCN(C4CC(c5nc(C(C)C)no5)C4)C[C@@H]3C(=O)O)c2c1 (stereo partly drawn) [Example 166, (3R,4R)-4-[3-hydroxy-3-(6-methoxyquinolin-4-yl)propyl]-1-[3-(3-isopropyl-1,2,4-oxadiazol-5-yl)cyclobutyl]piperidine-3-carboxylic acid]	> 64	> 64	> 64	> 64	> 64					

From US20080280879A1, “SUBSTITUTED HETEROCYCLIC DERIVATIVES AND THEIR PHARMACEUTICAL USE AND COMPOSITIONS” (priority 2007, published 2008)
